According to US10576086B2, “Triazine derivatives as interferon-gamma inhibitors” (University of Greenwich, priority 2015, dated 2020):

Test system: IFN-γ production in human peripheral blood mononuclear cells (PBMCs)
Assay: Experiment 2: IFN-γ production by PHA-stimulated human PBMCs, ELISA
Assay type: cell-based
Conditions: for [IFN-γ]: PHA 5 μg/ml
Protocol: A similar set of tests were carried out, in which three compounds known as CEN-079(3,5-diamino-6-[2-(3,4,5-trichlorothienyl)]-1,2,4-triazine), CEN-092(3,5-diamino-6-(3,5-bistrifluoromethylphenyl)-1,2,4-triazine) and CEN-216(3,5-diamino-6-(2,3-dichlorophenyl)-2,3(2,5)-dihydro-3(5)-imino-2-(2,2,2-trichloroethyl)-1,2,4-triazine) were compared with lamotrigine. CEN-079, CEN-092 and CEN-216 are within the scope of Formulae 1, 2 and 3.
50 ml of blood from three healthy adult donors was collected by venepuncture in heparinised tubes. The blood samples where centrifuged at 3000 rpm for 15 minutes. The supernatant plasma was collected in a centrifuge tube, and centrifuged at 3000 rpm for a further 10 minutes. The supernatant was then collected in a plain tube, and stored at −70° C. for future use.
The cells from the first centrifuged heparinised tube were diluted 1:1 in RPMI-1640, and mixed by multiple inversions. The cell mixture was then slowly layered, using a sterile plastic 3 ml pipette, along a tube wall containing lymphoprep (Nycomed) at a ratio of 2:1 cells/RPMI-1640:Lymphoprep in a 25 ml universal tube. The mixture was centrifuged at 2400 rpm for 30 minutes, and left to stand for 20 minutes. PBMCs were slowly removed from the interface using a sterile plastic pipette, and collected in a 15 ml centrifuge tube.
The cells were washed twice by diluting in RPMI-1640 with 2 mM L-glutamine, 100 U/ml penicillin and 100 μg/ml streptomycin at a ratio of 1:1. The mixture was centrifuged at 3000 rpm for 15 minutes, and the supernatant decanted. PBMCs were then diluted in RPMI-1640 containing 2 mM L-glutamine, 100 U/ml penicillin and 100 μg streptomycin, to make up a volume of 6 ml for subjects 1 and 2, and 9 ml for subject 3.
Cells were counted using an Improved Neubauer haemocytometer (Hawksley, UK) on a light microscope. 10 μl of cell suspension was loaded onto the haemocytometer using a sterile plastic pipette. Cells were counted in five out of 25 1 mm squares, from which the total cell count was calculated.
5 μg/ml PHA was used as a T cell activating agent for the production of IFN-γ. The PBMCs were treated with the four test compounds (lamotrigine, CEN-079, CEN-092, CEN-216) at concentrations of 10 μM, 30 μM and 300 μM to assess their effects on IFN-γ production by the stimulated T cells.
The tests were carried out as for Experiment 1, in which 2×10^6 PBMC/ml, 25 μl of 5% autologous plasma, and 2.63 μl of 5 μg/ml PHA were used. Test compound at each concentration was then added, except for one control case.
10 μM solutions were obtained by adding 1.05 μl of a 5 mM solution of the compounds to the above PBMC-containing solution. 30 μM solutions were obtained by adding 3.15 μl of the 5 mM solution of the compounds. 300 μM solutions were obtained by adding […] solutions of the compounds.
The tubes were covered, gently shaken to mix the contents, and incubated for 24 hours at 37° C. The tubes were then centrifuged at 2500 rpm for 10 minutes. The supernatant was collected in a 3 ml plastic pipette, and aliquots were stored at −70° C. before being analysed.
The test was performed according to the supplier's instructions. Donor samples were diluted 1:1 in phosphate buffered […] (PBS) and assayed simultaneously with IFN-γ standard samples, in duplicate. The standard curve ranged from 15.6 pg/ml to 1000 pg/ml.
A 96-well multiwell microplate (high binding Costar) was prepared, by diluting a capture antibody (720 μg/ml of mouse anti-human IFN-γ) in PBS to a working concentration of 4.0 μg/ml. 100 μl was immediately coated on each well, and left overnight at room temperature. The wells were washed three times in wash buffer, using microplate autowasher (LT-3000, LabTech International Ltd). The remainder of the wash buffer in the wells was removed by blotting on to clean paper towels. The plate was blocked by adding 300 μl Block buffer (1% BSA in PBS) to each well and incubated at room temperature for 1 hour. […]

Question: With Nc1nnc(-c2cccc(Cl)c2Cl)c(N)n1 [Lamotrigine, 3,5-diamino-6-(2,3-dichlorophenyl)-1,2,4-triazine] as the molecule, how does the “[IFN-γ] vs control” value (10 μM, Subject 1, 24 h) read?
Answer: The value was 104.7%.

Question: And the “[IFN-γ]” value (10 μM, Subject 1, 24 h)?
Answer: The value was 732 pg/mL.

Question: What about the “[IFN-γ] vs control” value (10 μM, Subject 2, 24 h) of the same molecule?
Answer: Its value is 78.6%.

Question: And the “[IFN-γ]” value (10 μM, Subject 2, 24 h)?
Answer: The value was 1591.5 pg/mL.

Question: And the “[IFN-γ] vs control” value (10 μM, Subject 3, 24 h)?
Answer: Its value is 74.8%.

Question: What about the “[IFN-γ]” value (10 μM, Subject 3, 24 h) of the same molecule?
Answer: The value was 1590.0 pg/mL.

Question: What about the “[IFN-γ] vs control” value (30 μM, Subject 1, 24 h) of the same molecule?
Answer: The value was 65%.

Question: And the “[IFN-γ]” value (30 μM, Subject 1, 24 h)?
Answer: The value was 454 pg/mL.

Question: What about the “[IFN-γ] vs control” value (30 μM, Subject 2, 24 h) of the same molecule?
Answer: The value was 69.1%.

Question: What about the “[IFN-γ]” value (30 μM, Subject 2, 24 h) of the same molecule?
Answer: Its value is 1400.5 pg/mL.

Question: What about the “[IFN-γ] vs control” value (30 μM, Subject 3, 24 h) of the same molecule?
Answer: Its value is 39.2%.

Question: What about the “[IFN-γ]” value (30 μM, Subject 3, 24 h) of the same molecule?
Answer: Its value is 833.0 pg/mL.

Question: And the “[IFN-γ] vs control” value (300 μM, Subject 1, 24 h)?
Answer: Its value is 8.5%.

Question: And the “[IFN-γ]” value (300 μM, Subject 1, 24 h)?
Answer: The value was 59.5 pg/mL.

Question: And the “[IFN-γ] vs control” value (300 μM, Subject 2, 24 h)?
Answer: The value was 10.6%.

Question: What about the “[IFN-γ]” value (300 μM, Subject 2, 24 h) of the same molecule?
Answer: Its value is 215.0 pg/mL.

Question: And the “[IFN-γ] vs control” value (300 μM, Subject 3, 24 h)?
Answer: Its value is 8.7%.

Question: What about the “[IFN-γ]” value (300 μM, Subject 3, 24 h) of the same molecule?
Answer: The value was 186.0 pg/mL.

Question: What about the “inhibition of IFN-γ production in PBMCs (in words)” value (Experiment 2, human PBMCs) of the same molecule?
Answer: The value was “shown to be an inhibitor of IFN-γ production in PBMCs”.

Question: And the IC50 (PBMC, human PBMCs, PHA-stimulated, read-out: IC50 (concentration to inhibit IFN-γ production by 50%))?
Answer: The IC50 was 43 µM.
